Assay results: patent US20110117054A1, “USE OF RIBAVIRIN IN BLOOD COAGULATION DISORDER” (National University Corporation Nagoya University, priority 2007, published 2011)

Test system: HCV
Experiment: HCV eradication in HCV positive hemophilia patients (Working Example 6)
Type: in vivo, hepatitis C virus
Conditions: Patient No. 6, interferon-α-2b alone prior to administration in this example
Procedure: In Table 5, the severity of hemophilia was rated as mild when the level of coagulation factors exceeded 5%, moderate when this level was from 1 to 5%, and severe when this level was below 1%. The HCV-RNA level was measured with an Amplicor HCV Assay, version 2 (Roche) at the start of administration. The genotype of the HCV virus was determined from the base sequence of the 5′-UTR region thereof. HCV eradication was indicated as “yes” when HCV-RNA viruses were not detected for 24 weeks following the end of administration. The HIV infection state was determined by the HIV antibodies using a particle agglutination assay kit (Fujirebio Inc.).

interferon-α-2b
HCV eradication: not eradicated
